Entries after “also recorded” stand apart in the source; their conditions may differ.
Legend:
[1] = test system: ERK1/2 nuclear translocation; assay: Determination of ERK1/2 localization by fluorescence microscopy after TPA stimulation; type: cell-based; settings: for inhibition of stimulated ERK1/2 nuclear translocation: 1 μM, 2 h
Procedure: Determination of Protein Localization by Fluorescence Microscopy:
Indicated cells were seeded on coverslips (coated with 0.001% w/v poly-L-lysine or not, depending on the cell line) at 50% confluency. After the indicated treatment, cells were fixed in 4% paraformaldehyde/PBS for 20 minutes on an ice surface, permeabilized with 0.1% Triton X-100/PBS for 5 minutes at 23° C., then blocked in 2% BSA/PBS for 30 minutes at 23° C. The fixed cells were sequentially incubated with appropriate antibodies (in 2% BSA/PBS, 1.5 hour), washed 3 times with PBS^−/−, and followed by incubation with either Cy-2-conjugated or rhodamine-conjugated secondary antibodies (1:200) and with DAPI ([…]; 1:100) in 2% BSA/PBS for 45 minutes. Slides were analyzed and photographed by a fluorescence microscope (Olympus BX51, ×40). Background correction, and contrast adjustment of raw data images were performed using Photoshop (Adobe, CA, USA).
The effect of Z56 was compared with that of the inhibitory effect of EPE peptide on nuclear translocation of ERK1/2.
The effects of the compounds on ERK1/2 nuclear translocation were evaluated in three cell lines (HeLa cells and two melanoma cell lines, A2185 and A2352), by treating the cells with each compound for two hours, and determining nuclear translocation using fluorescent anti-ERK antibodies, according to procedures described hereinabove.

A2185 and A2352 cells = assay: Viability assay (methylene blue), two BRAF melanoma cells; type: cell-based; settings: for cytotoxicity at 1 µM: both melanoma cell lines, read-out: reduction of viability
Procedure: FIGS. 10A, 10B and 10C present data from screening the 20 analogs of Compound Z2 (“C-compounds”) showing three particularly active anti-proliferative compounds. […] A2185 and A2352 cells were grown in 1% FCS containing DMSO (0.1%), EPE peptide, Compound Z56, Compound Z2 or C-compounds (10 μM), for 72 hours. Compounds were categorized according to activity: (1) active, below 40%; (2) moderate activity, below 80%; (3) not active, above 80%. […] A2185 and A2352 cells were grown in 1% FCS containing DMSO (0.1%), EPE peptide (10 μM), compounds Z56, Z2 or selected C-compounds (3 μM), for 72 hours. Empty squares/circles represent individual data points of proliferation. Full squares/circles indicate average proliferation of 2 independent experiments in triplicate±SE. Bold horizontal line defines arbitrary activity threshold of activity below 40%. FIG. 10C presents dose response curves of active C-compounds compounds. A2185 and A2352 were grown in 1% FCS media containing DMSO (0.1%), EPE peptide, Z56, Z2 (10 μM) or compounds C17, C22 and C23 (0.1-10 μM), for 72 hours. […] Cell viability was measured by staining with methylene blue. Data presented as percentage of DMSO control. Bar graphs represent average of 2 independent experiments done in triplicates ±SE.
FIG. 13 presents a graph showing the effect of analogs of Compound C17 (“D-compounds”) on cell viability at a concentration of 10 μM. A2185 and A2352 cells were grown in 1% FCS media containing DMSO (0.1%) EPE peptide (10 μM), Compounds Z56, Z2, C17 (10 μM) as controls, and D-Compounds (10 μM), for 72 hours. Viable cells were measured by staining with methylene blue. Bar graphs represent average of 2 independent experiments done in triplicates. Data presented as percentage of DMSO proliferation ±standard error.
FIG. 14 presents a graph showing the effect of analogs of Compound C17 (“D-compounds”) on cell viability at a concentration of 1 μM. A2185 and A2352 cells were grown in 1% FCS media containing DMSO (0.1%), EPE peptide (10 μM), Compounds Z56, Z2 and C17 (1 and 10 μM) as controls, and D-compounds (1 μM), for 72 hours. Viable cells were measured by staining with methylene blue. Bar graphs represent average of 2 independent experiments done in triplicates. Data presented as percentage of DMSO proliferation ±standard error.
Cells were seeded at low confluence into 24, 48 or 96-well plates in complete medium. After 24 hours, medium was replaced by 1% FCS (fetal calf serum) containing appropriate treatments. Fresh medium containing the same agents was replaced every day. After 72 or 96 hours of treatment, cells were fixed with 4% formaldehyde overnight at 23° C., washed once with 0.1 M borate buffer (pH 8.5) for 10 minutes, and stained with of 1% methylene blue in 0.1 M borate buffer (pH 8.5) for 30 minutes. Excess stain was washed out with distilled water. Color was extracted by adding 0.1 M HCl (3 hours, 23° C.), and absorbance measured at 595 nm in an ELISA reader. For time course experiments, attached cells were fixed and measured at 0, 24, 48, 72 and 96 hours. For dose-response experiments, cells were treated with indicated concentrations of reagent, fixed and stained after 72 hours as above.
The ability of the selected compounds to reduce cell viability of two BRAF melanoma cells (A2185 and A2352) was evaluated. Initially, all compounds were assayed at a relatively high concentration of 10 μM.

[2] = test system: melanoma cells (A2185, A2352, A2024, A2058 and LOX-IMVI); assay: Dose-response analysis (IC50 assay), melanoma cells; type: cell-based; settings: calculated by interpolation in the dose response curves
Procedure: (§1) FIG. 15A presents dose response curves of compounds C17, D3, D11 and D14 on 8 cancer cells. Five melanoma cell lines (A2185, A2352, A2024, A2058 and LOX-IMVI), HeLa, HCT-116 and PC3 cells were grown in 1% FCS media containing either DMSO (0.1%), EPE peptide (10 μM), or Compounds C17, D3, D11, D14 at the indicated concentrations, for 72 hours. Viable cells were quantified by staining with methylene blue. Data presented as percentage of DMSO control ±SE of triplicates. […] IC50 values were calculated by interpolation in the curves in FIG. 15A. […] Bar graphs represent average viability respect to DMSO control ±SE of triplicates.
(§2) Cell Viability (IC50) Assay:
(§3) Cells were seeded at a density of 4000 cells per well into 96-well plates in complete medium. After 24 hours, medium was replaced by 1% FCS (fetal calf serum) containing appropriate treatments. Fresh medium containing the same agents was replaced every day. After 96 hours, cell viability was assessed using the CellTiter-Glo reagent (Promega; Madison, WI). IC50 values were determined using GraphPad Prism.

PC3 cells = assay: Dose-response analysis, PC3 cells; type: cell-based; settings: dose response, 72 hours
Procedure: as §1, §2, §3

LOX-IMVI melanoma cells = assay: Dose-response analysis (IC50), LOX-IMVI cells; type: cell-based; settings: Homo sapiens
Procedure: as §1, §2, §3

[3] = test system: anti-tubercular activity (unknown mechanism); settings: Ananthan et al., Tuberculosis (Edinb) 2009; cited from earlier work
mammalian cells = settings: Ananthan et al., Tuberculosis (Edinb) 2009; cited from earlier work
[4] = test system: A2185, A2352, A2024, A2058, LOX-IMVI, HeLa, HCT-116 and PC3 cells; assay: Dose-response analysis (IC50 assay) in eight cancer cell lines; type: cell-based; settings: for potency in reducing cell viability relative to Compound D14 / potency in reducing cell viability relative to Compound C17: 72 hours; for potency in reducing cell viability relative to Compound D14: in seven of the eight cell lines; for potency in reducing cell viability relative to Compound C17: in six of the eight tested cell lines
Procedure: as §1
Cell Viability (IC50) Assay: […]

A2058 cells = assay: Dose-response analysis, A2058 cells; type: cell-based; settings: dose response, 72 hours
Procedure: as §1, §2, §3

[5] = TPA 100 nM, 15 minutes, A2185 cells

Row | IC50 [2] [nM] | SMILES | relative potency in blocking nuclear accumulation of ERK1/2 ([1]; 10 μM, 2 hours, A2185 cells) | nuclear accumulation of ERK1/2 upon TPA stimulation ([1]; 10 μM, 2 hours, TPA 100 nM, 15 minutes, A2185 and A2352 cells) | cell viability at lower concentration (A2185 and A2352 cells; 3 μM, 72 hours, 1% FCS) | viability at 10 µM (A2185 and A2352 cells; 10 μM, 72 hours, 1% FCS, active below 40%, moderate below 80%, not active above 80%, read-out: cell viability (percentage of DMSO control)) [%] | cell viability, dose response (A2185 and A2352 cells; 0.1-10 μM, 72 hours, 1% FCS) | activity in SAR summary of FIGS. 10A-10C (cell viability) (A2185 and A2352 cells; comparison with Compound Z2 or named analog) | concentration at which activity is already exhibited (A2185 and A2352 cells; dose response 0.1-10 μM, 72 hours) [µM] | IC50 (A2185 and A2352 cells; potency summarised from viability results of Example 6) [nM] | viability of PC3 cells (PC3 cells) | IC50 (LOX-IMVI melanoma cells) [nM] | anti-tubercular activity in high-throughput screening [3] | cytotoxic activity in mammalian cells (mammalian cells) | inhibition of stimulated ERK1/2 nuclear translocation [1, 5] | cytotoxicity at 1 µM (A2185 and A2352 cells; 72 hours, 1% FCS) [%] | potency in reducing cell viability relative to Compound D14 [4] | potency in reducing cell viability relative to Compound C17 [4] | selectivity (pattern of effect across cell types compared with EPE peptide) ([4]; eight cancer cell lines) | reducing the viability of A2058 cells (A2058 cells) | IC50 values compared to Compound C17 ([4]; eight cancer cell lines)
1 | 40 to 250 | O=S1(=O)C=CC2ON=C(c3cc(Cl)cc(Cl)c3)C21 (centres unmarked) [Compound D3] | – | – | – | – | – | – | – | – | did not | – | – | – | convincing activity; also recorded: most potent of the three tested compounds | ≤ 90 | slightly more potency than Compound D14 | significantly more potency than Compound C17 | more selective than Compounds C17 and D14 | strong effect | –
2 | 40 to 250 | O=S1(=O)C=CC2ON=C(c3ccc(Cl)c(Cl)c3)C21 (centres unmarked) [Compound D11] | – | – | – | – | – | – | – | – | did not | – | – | – | convincing activity | ≤ 90 | slightly more potency than Compound D14 | significantly more potency than Compound C17 | more selective than Compounds C17 and D14 | strong effect | –
3 | – | O=S1(=O)C=CC2ON=C(c3c[nH]c4ccccc34)C21 (centres unmarked) [Compound D14] | – | – | – | – | – | – | – | – | significantly decreased | – | – | – | convincing activity | ≤ 90 | – | significantly more potency than Compound C17 | less selective | – | significantly lower IC50 values compared to Compound C17

Row | SMILES | IC50 [2] [nM] | relative potency in blocking nuclear accumulation of ERK1/2 ([1]; 10 μM, 2 hours, A2185 cells) | nuclear accumulation of ERK1/2 upon TPA stimulation ([1]; 10 μM, 2 hours, TPA 100 nM, 15 minutes, A2185 and A2352 cells) | cell viability at lower concentration (A2185 and A2352 cells; 3 μM, 72 hours, 1% FCS) | viability at 10 µM (A2185 and A2352 cells; 10 μM, 72 hours, 1% FCS, active below 40%, moderate below 80%, not active above 80%, read-out: cell viability (percentage of DMSO control)) [%] | cell viability, dose response (A2185 and A2352 cells; 0.1-10 μM, 72 hours, 1% FCS) | activity in SAR summary of FIGS. 10A-10C (cell viability) (A2185 and A2352 cells; comparison with Compound Z2 or named analog) | concentration at which activity is already exhibited (A2185 and A2352 cells; dose response 0.1-10 μM, 72 hours) [µM] | IC50 (A2185 and A2352 cells; potency summarised from viability results of Example 6) [nM] | viability of PC3 cells (PC3 cells) | IC50 (LOX-IMVI melanoma cells) [nM] | anti-tubercular activity in high-throughput screening [3] | cytotoxic activity in mammalian cells (mammalian cells) | inhibition of stimulated ERK1/2 nuclear translocation [1, 5] | cytotoxicity at 1 µM (A2185 and A2352 cells; 72 hours, 1% FCS) [%] | potency in reducing cell viability relative to Compound D14 [4] | potency in reducing cell viability relative to Compound C17 [4] | selectivity (pattern of effect across cell types compared with EPE peptide) ([4]; eight cancer cell lines) | reducing the viability of A2058 cells (A2058 cells) | IC50 values compared to Compound C17 ([4]; eight cancer cell lines)
4 | O=S1(=O)C=CC2ON=C(c3ccc(C(F)(F)F)cc3)C21 (centres unmarked) [Compound C17] | 400 to 1300 | more potent than Compounds C22 and C23 | inhibited | consistently strong anti-viability effect | < 40 | dose dependent manner; also recorded: as potent in reducing the viability of A2352 cells | surprisingly superior to the ester group of Compound Z2 | 0.3 | ~1000 | significantly decreased | ~20 | hit | without presenting cytotoxic activity | – | – | – | – | – | – | –

— patent US12286439B2, “Inhibitors of ERK nuclear translocation” (Yeda Research and Development Co. Ltd., priority 2018, dated 2025)
